Reference: patent US20240316140A1 (UBIO INC., priority 2021, published 2024)
Residues, ends and D or L forms follow the SMILES beside them.

Tests used:
[1] = system: HepG2 hepatoma cell line; assay: HepG2 cytotoxicity evaluation of peptide (MTT); type: cell-based, human; settings: tested 0.01 to 1000 ug/ml, 24 hours, non-toxic concentration
Experimental: After culturing a HepG2 hepatoma cell line, three kinds of synthetic peptides were added by concentration, and MTT (methylthiazol tetrazolium bromide, Sigma Aldrich) was carried out to confirm cell viability. An appropriate amount (1×10^5/well) of cells was seeded on each well in a 24-well plate (BD, Falcon) to treat a sample according to the concentration, and cell viability was confirmed after cultivation for 24 hours in a 37° C. incubator.

[2] = system: HepG2 cells; assay: Hepatocyte protection ability of peptide against t-BHP damage (MTT); type: cell-based, human; settings: 10 mM t-BHP
Experimental: HepG2 cells, which are hepatoma cell lines, were dispensed in the 24-well plate at 1×10^5/well and cultured. Thereafter, in order to confirm hepatocyte protection ability of three kinds of synthetic peptides, the peptides were treated by concentration, cultured for 23 hours, and then 10 mM of t-BHP was treated for damage to the hepatocytes to culture the same for 90 minutes.

SMILES	Test Concentration Setting, Cytotoxicity (HepG2) [1]	Hepatocyte Protection Ability ([2]; 10 ug/ml peptide)	Hepatocyte Protection Ability ([2]; 0.1 ug/ml peptide)	Hepatocyte Protection Ability ([2]; 1 ug/ml peptide)
CC(C)[C@H](N)C(=O)N[C@H](C(=O)N[C@H](C(=O)N[C@@H](CCC(=O)O)C(=O)O)C(C)C)C(C)C [PEP-1, VVVE] (H-VVVE-OH; N-terminus and C-terminus assumed)	less than 10 ug/ml	7%	–	–
CC(C)C[C@H](NC(=O)CNC(=O)[C@@H](N)CC(=O)O)C(=O)N[C@@H](Cc1c[nH]cn1)C(=O)N[C@@H](CC(C)C)C(=O)N[C@@H](CCCNC(=N)N)C(=O)O [PEP-2, DGLHLR] (H-DGLHLR-OH; N-terminus and C-terminus assumed)	less than 10 ug/ml	26%	15%	20%
CC(C)[C@H](NC(=O)[C@H](CO)NC(=O)[C@@H]1CCCN1C(=O)[C@H](CC(N)=O)NC(=O)[C@H](Cc1ccccc1)NC(=O)[C@H](CC(=O)O)NC(=O)[C@@H](N)CC(=O)O)C(=O)N[C@@H](Cc1c[nH]cn1)C(=O)O [PEP-3] (H-DDFNPSVH-OH; N-terminus and C-terminus assumed)	less than 10 ug/ml	20%	9%	20%
